The values that follow come from patent US20250032511A1, “[…] USE IN TREATMENT OF SUPER […] EPILEPTICUS” (MARINUS PHARMACEUTICALS, INC., priority 2023, published 2025).

One series concerns SRSE. The following applies: SRSE patients; anesthesia weaned until seizures started, then higher IV doses; cited from earlier work.
For series [1] the following is noted: in contrast to allopregnanolone; cited from earlier work.
In series [2] the test system is super refractory status epilepticus. The series can be described thus: Case report: intravenous ganaxolone in a patient with super refractory status epilepticus (EEG, mental status). Type of series: in vivo, human.

In the case of `CC(=O)[C@H]1CC[C@H]2[C@@H]3CC[C@H]4C[C@](C)(O)CC[C@]4(C)[C@H]3CC[C@]12C` [Ganaxolone, 3α-hydroxy-3β-methyl-5α-pregnan-20-one], the “clinical outcome of earlier higher-dose regimen” value in the series on SRSE is “showed early success, but seizures returned in some patients when ganaxolone serum levels were reduced”. In addition, the oral bioavailability entry in series [1] is given as “orally bioavailable”. For the same molecule, the “frequency of remaining generalized periodic discharges (GPDs) on EEG in subsequent days” value in series [2] (before GNX: 2-4 Hz GPDs, same patient and regimen) is reported as “up to 1 Hz”. The “overall outcome of the case” value in series [2] (late initiation of GNX (hospital day 52)) is “electrographic and clinical improvement”. Besides, in series [2] (person, SRSE, IV 20 mg bolus, 60 mg/hr first hour, then 42 mg/hr, total 7 days), the “EEG pattern during GNX infusion” value is reported as “marked improvement in the EEG pattern”. Also, the mental status result in series [2] (same patient, eye opening, attending, communicating with gestures and facial expressions) is given as “returned to their premorbid baseline”.
